# Biological target: AMPK
# Assay: AMPK activation, enzyme-linked immunosorbent assay
# Format: biochemical
# Details: compounds of Table 1 (Table 6)
row,SMILES,EC50
1,"N#Cc1ccc(CN2CCC(Oc3ccc4oc(C(=O)NC5CCN(Cc6ccccc6)CC5)cc4c3)CC2)cc1 [1-114, N-(1-benzylpiperidin-4-yl)-5-(1-(4-cyanobenzyl)piperidin-4-yloxy)benzofuran-2-carboxamide]",100 to 500 nM
2,"O=C(NC1CCN(C(=O)c2ccncc2)CC1)c1cc2cc(OC3CCN(c4ccc(C(F)(F)F)cc4)CC3)ccc2o1 [1-115, N-(1-isonicotinoylpiperidin-4-yl)-5-(1-(4-(trifluoromethyl)phenyl)piperidin-4-yloxy)benzofuran-2-carboxamide]",< 100 nM
3,"NC(=O)c1ccc(CN2CCC(Oc3ccc4oc(C(=O)NC5CCN(Cc6ccccc6)CC5)cc4c3)CC2)cc1 [1-116, N-(1-benzylpiperidin-4-yl)-5-(1-(4-carbamoylbenzyl)piperidin-4-yloxy)benzofuran-2-carboxamide]",100 to 500 nM
4,"CN(C(=O)c1cc2cc(OC3CCN(c4ccc(C(F)(F)F)cc4)CC3)ccc2o1)C1CCN(Cc2ccccn2)CC1 [1-117, N-methyl-N-(1-(pyridin-2-ylmethyl)piperidin-4-yl)-5-(1-(4-(trifluoromethyl)phenyl)piperidin-4-yloxy)benzofuran-2-carboxamide]",< 100 nM
5,"CN(C(=O)c1cc2cc(OC3CCN(c4ccc(C(F)(F)F)cc4)CC3)ccc2o1)C1CCN(C(=O)c2ccncc2)CC1 [1-118, N-(1-isonicotinoylpiperidin-4-yl)-N-methyl-5-(1-(4-(trifluoromethyl)phenyl)piperidin-4-yloxy)benzofuran-2-carboxamide]",100 to 500 nM
6,"CN(C(=O)c1cc2cc(OC3CCN(c4ccc(C(F)(F)F)cc4)CC3)ccc2o1)C1CCN(Cc2ccc(C(F)(F)F)cc2)CC1 [1-119, N-methyl-N-(1-(4-(trifluoromethyl)benzyl)piperidin-4-yl)-5-(1-(4-(trifluoromethyl)phenyl)piperidin-4-yloxy)benzofuran-2-carboxamide]",< 100 nM
7,"CC(C)(C)OC(=O)N1CC[C@@H](NC(=O)c2cc3cc(OC4CCN(c5ccc(C(F)(F)F)cc5)CC4)ccc3o2)C1 [1-120, (R)-tert-butyl 3-(5-(1-(4-(trifluoromethyl)phenyl)piperidin-4-yloxy)benzofuran-2-carboxamido)pyrrolidine-1-carboxylate]",1000 to 5000 nM
8,"O=C(N[C@@H]1CCNC1)c1cc2cc(OC3CCN(c4ccc(C(F)(F)F)cc4)CC3)ccc2o1 [1-121, (R)-N-(pyrrolidin-3-yl)-5-(1-(4-(trifluoromethyl)phenyl)piperidin-4-yloxy)benzofuran-2-carboxamide]",> 10000 nM
9,"O=C(N[C@@H]1CCN(Cc2ccncc2)C1)c1cc2cc(OC3CCN(c4ccc(C(F)(F)F)cc4)CC3)ccc2o1 [1-122, (R)-N-(1-(pyridin-4-ylmethyl)pyrrolidin-3-yl)-5-(1-(4-(trifluoromethyl)phenyl)piperidin-4-yloxy)benzofuran-2-carboxamide]",100 to 500 nM
10,"O=C(N[C@@H]1CCN(Cc2cccnc2)C1)c1cc2cc(OC3CCN(c4ccc(C(F)(F)F)cc4)CC3)ccc2o1 [1-123, (R)-N-(1-(pyridin-3-ylmethyl)pyrrolidin-3-yl)-5-(1-(4-(trifluoromethyl)phenyl)piperidin-4-yloxy)benzofuran-2-carboxamide]",100 to 500 nM
11,"O=C(N[C@@H]1CCN(Cc2ccccn2)C1)c1cc2cc(OC3CCN(c4ccc(C(F)(F)F)cc4)CC3)ccc2o1 [1-124, (R)-N-(1-(pyridin-2-ylmethyl)pyrrolidin-3-yl)-5-(1-(4-(trifluoromethyl)phenyl)piperidin-4-yloxy)benzofuran-2-carboxamide]",1000 to 5000 nM
12,"O=C(N[C@@H]1CCN(C(=O)c2ccncc2)C1)c1cc2cc(OC3CCN(c4ccc(C(F)(F)F)cc4)CC3)ccc2o1 [1-125, (R)-N-(1-isonicotinoylpyrrolidin-3-yl)-5-(1-(4-(trifluoromethyl)phenyl)piperidin-4-yloxy)benzofuran-2-carboxamide]",1000 to 5000 nM
13,"O=C(N[C@@H]1CCN(S(=O)(=O)c2cccnc2)C1)c1cc2cc(OC3CCN(c4ccc(C(F)(F)F)cc4)CC3)ccc2o1 [1-126, (R)-N-(1-(pyridin-3-ylsulfonyl)pyrrolidin-3-yl)-5-(1-(4-(trifluoromethyl)phenyl)piperidin-4-yloxy)benzofuran-2-carboxamide]",1000 to 5000 nM
14,"CC(C)(C)OC(=O)N1CC[C@H](NC(=O)c2cc3cc(OC4CCN(Cc5ccc(Cl)cc5)CC4)ccc3o2)C1 [1-127, (S)-tert-butyl 3-(5-(1-(4-chlorobenzyl)piperidin-4-yloxy)benzofuran-2-carboxamido)pyrrolidine-1-carboxylate]",1000 to 5000 nM
15,"O=C(N[C@H]1CCNC1)c1cc2cc(OC3CCN(Cc4ccc(Cl)cc4)CC3)ccc2o1 [1-128, (S)-5-(1-(4-chlorobenzyl)piperidin-4-yloxy)-N-(pyrrolidin-3-yl)benzofuran-2-carboxamide]",> 10000 nM
16,"O=C(N[C@H]1CCN(Cc2ccncc2)C1)c1cc2cc(OC3CCN(Cc4ccc(Cl)cc4)CC3)ccc2o1 [1-129, (S)-5-(1-(4-chlorobenzyl)piperidin-4-yloxy)-N-(1-(pyridin-4-ylmethyl)pyrrolidin-3-yl)benzofuran-2-carboxamide]",1000 to 5000 nM

row,SMILES,EC50
1,"O=C(N[C@H]1CCN(Cc2cccnc2)C1)c1cc2cc(OC3CCN(Cc4ccc(Cl)cc4)CC3)ccc2o1 [1-130, (S)-5-(1-(4-chlorobenzyl)piperidin-4-yloxy)-N-(1-(pyridin-3-ylmethyl)pyrrolidin-3-yl)benzofuran-2-carboxamide]",1000 to 5000 nM
2,"NC(=O)c1ccc(CN2CCC(Oc3ccc4oc(C(=O)NC5CCN(Cc6ccncc6)CC5)cc4c3)CC2)cc1 [1-131, 5-(1-(4-carbamoylbenzyl)piperidin-4-yloxy)-N-(1-(pyridin-4-ylmethyl)piperidin-4-yl)benzofuran-2-carboxamide]",1000 to 5000 nM
3,"O=C(NC1CCN(Cc2ccncc2)CC1)c1cc2cc(OC3CCN(c4ccc(OC(F)(F)F)cc4)CC3)ccc2s1 [1-137, N-(1-(pyridin-4-ylmethyl)piperidin-4-yl)-5-(1-(4-(trifluoromethoxy)phenyl)piperidin-4-yloxy)benzo[b]thiophene-2-carboxamide]",< 100 nM
4,"O=C(NC1CCN(Cc2ccncc2)CC1)c1cc2cc(OC3CCN(c4ccc(C(F)(F)F)cc4)CC3)ccc2s1 [1-138, N-(1-(pyridin-4-ylmethyl)piperidin-4-yl)-5-(1-(4-(trifluoromethyl)phenyl)piperidin-4-yloxy)benzo[b]thiophene-2-carboxamide]",< 100 nM
5,"CC(C)(C)OC(=O)N1CCC(NC(=O)c2cc3ccc(OC4CCN(c5ccc(C(F)(F)F)cc5)CC4)cc3s2)CC1 [1-140, tert-butyl 4-(6-(1-(4-(trifluoromethyl)phenyl)piperidin-4-yloxy)benzo[b]thiophene-2-carboxamido)piperidine-1-carboxylate]",500 to 1000 nM
6,"O=C(NC1CCNCC1)c1cc2ccc(OC3CCN(c4ccc(C(F)(F)F)cc4)CC3)cc2s1 [1-141, N-(piperidin-4-yl)-6-(1-(4-(trifluoromethyl)phenyl)piperidin-4-yloxy)benzo[b]thiophene-2-carboxamide]",100 to 500 nM
7,"N#Cc1ccc(CN2CCC(NC(=O)c3cc4ccc(OC5CCN(c6ccc(C(F)(F)F)cc6)CC5)cc4s3)CC2)cc1 [1-144, N-(1-(4-cyanobenzyl)piperidin-4-yl)-6-(1-(4-(trifluoromethyl)phenyl)piperidin-4-yloxy)benzo[b]thiophene-2-carboxamide]",< 100 nM
8,"N#Cc1cccc(CN2CCC(NC(=O)c3cc4ccc(OC5CCN(c6ccc(C(F)(F)F)cc6)CC5)cc4s3)CC2)c1 [1-145, N-(1-(3-cyanobenzyl)piperidin-4-yl)-6-(1-(4-(trifluoromethyl)phenyl)piperidin-4-yloxy)benzo[b]thiophene-2-carboxamide]",100 to 500 nM
9,"N#Cc1ccccc1CN1CCC(NC(=O)c2cc3ccc(OC4CCN(c5ccc(C(F)(F)F)cc5)CC4)cc3s2)CC1 [1-146, N-(1-(2-cyanobenzyl)piperidin-4-yl)-6-(1-(4-(trifluoromethyl)phenyl)piperidin-4-yloxy)benzo[b]thiophene-2-carboxamide]",100 to 500 nM
10,"CC(C)(C)OC(=O)N1CCC(NC(=O)c2sc3cc(OC4CCN(c5ccc(C(F)(F)F)cc5)CC4)ccc3c2Cl)CC1 [1-147, tert-butyl 4-(3-chloro-6-(1-(4-(trifluoromethyl)phenyl)piperidin-4-yloxy)benzo[b]thiophene-2-carboxamido)piperidine-1-carboxylate]",1000 to 5000 nM
11,"O=C(NC1CCNCC1)c1sc2cc(OC3CCN(c4ccc(C(F)(F)F)cc4)CC3)ccc2c1Cl [1-148, 3-chloro-N-(piperidin-4-yl)-6-(1-(4-(trifluoromethyl)phenyl)piperidin-4-yloxy)benzo[b]thiophene-2-carboxamide]",> 10000 nM
12,"CC(C)(C)OC(=O)N1CCC(NC(=O)c2cc3cc(OC4CCN(c5ccc(C(F)(F)F)cc5)CC4)ccc3s2)CC1 [1-149, tert-butyl 4-(5-(1-(4-(trifluoromethyl)phenyl)piperidin-4-yloxy)benzo[b]thiophene-2-carboxamido)piperidine-1-carboxylate]",< 100 nM
13,"O=C(NC1CCNCC1)c1cc2cc(OC3CCN(c4ccc(C(F)(F)F)cc4)CC3)ccc2s1 [1-150, N-(piperidin-4-yl)-5-(1-(4-(trifluoromethyl)phenyl)piperidin-4-yloxy)benzo[b]thiophene-2-carboxamide]",1000 to 5000 nM
14,"O=C(NC1CCN(Cc2ccncc2)CC1)c1sc2cc(OC3CCN(c4ccc(C(F)(F)F)cc4)CC3)ccc2c1Cl [1-151, 3-chloro-N-(1-(pyridin-4-ylmethyl)piperidin-4-yl)-6-(1-(4-(trifluoromethyl)phenyl)piperidin-4-yloxy)benzo[b]thiophene-2-carboxamide]",< 100 nM
15,"O=C(NC1CCN(Cc2cccnc2)CC1)c1sc2cc(OC3CCN(c4ccc(C(F)(F)F)cc4)CC3)ccc2c1Cl [1-152, 3-chloro-N-(1-(pyridin-3-ylmethyl)piperidin-4-yl)-6-(1-(4-(trifluoromethyl)phenyl)piperidin-4-yloxy)benzo[b]thiophene-2-carboxamide]",< 100 nM
16,"O=C(NC1CCN(Cc2ccccn2)CC1)c1sc2cc(OC3CCN(c4ccc(C(F)(F)F)cc4)CC3)ccc2c1Cl [1-153, 3-chloro-N-(1-(pyridin-2-ylmethyl)piperidin-4-yl)-6-(1-(4-(trifluoromethyl)phenyl)piperidin-4-yloxy)benzo[b]thiophene-2-carboxamide]",100 to 500 nM
